For orientation: IC50 means the concentration at which inhibition is half-maximal. High values mean lower potency, low ones higher potency.

Results on seven compounds are retold here after ChEMBL document CHEMBL1821646, “Design and synthesis of a biotinylated probe of COX-2 inhibitor nimesulide analog JCC76” (Bioorg Med Chem Lett, 2011).

In data set [1] the test system is SK-BR-3. Kind of data set: Antiproliferative activity against human SKBR3 cells after 48 to 72 hrs by MTT assay. It counts as functional, cell-based.
Data set [2] concerns SK-BR-3. Put plainly: Antiproliferative activity against human SKBR3 cells at 100 uM after 48 to 72 hrs by MTT assay. The class given is cell-based. To be noted: sk-br-3, 100 µM. For orientation: Formazan colour is commonly taken as a measure of viable cells.

For the compound `Cc1ccc(C)c(COc2cc(NC(=O)C3CCCCC3)ccc2N(CCCCCCNC(=O)CCCC[C@H]2SC[C@H]3NC(=O)N[C@H]32)S(C)(=O)=O)c1`, the midpoint of inhibition in data set [1], the IC50, lay at 2.21 µM.

On to `CCCCCCN(c1ccc(NC(=O)C2CCCCC2)cc1OCc1cc(C)ccc1C)S(C)(=O)=O`, for which the midpoint of inhibition in data set [1], the IC50, lay at 81.7 µM.

Turning to `O=C(O)CCCC[C@@H]1SC[C@@H]2NC(=O)N[C@@H]21` [BIOTIN], the Activity entry in data set [2] is reported as “Non-toxic”.

Take `Cc1ccc(C)c(COc2cc(NC(=O)C3CCCCC3)ccc2NS(C)(=O)=O)c1`: the IC50 in data set [1] was found to be 83.7 µM.

As for `Cc1ccc(C)c(COc2cc(NC(=O)C3CCCCC3)ccc2N(CCCCCCNC(=O)c2ccc3ccccc3c2)S(C)(=O)=O)c1`, in data set [1], the IC50 is 45.3 µM.

The compound `COCCOCCN(c1ccc(NC(=O)C2CCCCC2)cc1OCc1cc(C)ccc1C)S(C)(=O)=O` came in with an IC50 in data set [1] of 13 µM.

In data set [1], `CCCCCC(=O)NCCCCCCN(c1ccc(NC(=O)C2CCCCC2)cc1OCc1cc(C)ccc1C)S(C)(=O)=O` gave an IC50 of 6 µM.
